Measurements taken from publication PMC12040169 (PLOS Biology, 2025).

Test: in vitro
Details: human, hela cells, % viability

SMILES | viability at 28.5 h, 10 µM [%]
Cc1ccc(OCc2nnc(SCc3cccc(C#N)c3)n2N)cc1C [CBK267420] | 84.1
Cc1ccc(C23CC4CC(CC(NC(=O)NC(Cc5ccccc5)C(=O)O)(C4)C2)C3)cc1 (stereo not drawn) [CBK267423] | 93.7
O=C(CSc1nnc(-c2ccccc2)n1C1CCCCC1)Nc1ccc(Cl)cc1Cl [CBK267424] | 100
Cn1c(COc2ccccc2)nnc1SCC(=O)c1ccc(-c2ccccc2)cc1 [CBK267426] | 87.9
COc1ccc(OC)c(NC(=O)CSc2nnc(-c3ccco3)o2)c1 [CBK267429] | 98.3
CN(CC(=O)Nc1nnc[nH]1)S(=O)(=O)c1cc(Cl)ccc1Cl [CBK267433] | 97
O=C(CSCc1c(Cl)cccc1Cl)Nc1cccc(-c2nnc(-c3ccccc3)o2)c1 [CBK267435] | 96.7
NS(=O)(=O)c1ccc(CCNC2CC(=O)N(Cc3ccccc3)C2=O)cc1 (stereo not drawn) [CBK267439] | 90.5
COC(=O)C(O)(CC(=O)Nc1ccc(C)c(F)c1)C(F)(F)F (stereo not drawn) [CBK267440] | 103
CCOC(=O)NC(=O)CSc1nc2ccccc2[nH]1 [CBK267443] | 91.9
COc1ccc(NC(=O)CSc2nc3c(c(-c4cccs4)c2C#N)CN(C)CC3)cc1OC [CBK267444] | 103
CN1CCc2nc(SCC(=O)NC(C)(C)C)c(C#N)cc2C1 [CBK267445] | 87.4
CN1CCc2nc(SCC(=O)c3ccc(-c4ccccc4)cc3)c(C#N)c(-c3cccs3)c2C1 [CBK267447] | 88.3
CC1=C(C(=O)Nc2ccccc2)C(c2ccccc2)C(C#N)=C(SCc2ccncc2)N1 (stereo not drawn) [CBK267448] | 90.2
CC(C)CC1C(C#N)=C(N)Oc2[nH]nc(-c3cccs3)c21 (stereo not drawn) [CBK267449] | 104
N#Cc1c(SCC(=O)N2CCc3ccccc3C2)nsc1SCC(=O)N1CCc2ccccc2C1 [CBK267453] | 93.6
CCOC(=O)CC(=O)CSc1nc(-c2cccnc2)ccc1C#N [CBK267456] | 89.6
CSc1nc(N)nc2sc3c(O)cc(=O)[nH]c3c12 [CBK267457] | 105
Nc1cc(N)nc(SCc2cccnc2)n1 [CBK267459] | 97.5
CSc1nc(N)nc(SC(C(=O)O)c2ccccc2)c1C#N (stereo not drawn) [CBK267461] | 93.4
CN1CCc2nc(SCc3cccnc3)c(C#N)cc2C1 [CBK267463] | 87.4

SMILES | viability at 28.5 h, 10 µM [%]
CN(C)S(=O)(=O)N1CCN(C(=O)N(c2ccccc2)c2ccccc2)CC1 [CBK267466] | 96.7
O=C(c1cccc(Br)c1)N1CCN(S(=O)(=O)N2CCOCC2)CC1 [CBK267470] | 93.2
O=C(CCc1ccccc1)NC(=S)Nc1ccc(-c2nc3ccccc3[nH]2)cc1 [CBK267472] | 77.1
COC(=O)C1=C(C)N(CCc2ccccc2)C(=O)C1(NC(=O)c1ccccc1)C(F)(F)F (stereo not drawn) [CBK267477] | 86
Cn1ncc(C#N)c1NC(=O)C1CC(c2ccc(Cl)c(Cl)c2)=NO1 (stereo not drawn) [CBK267478] | 93.7
O=C(NCCN1CCOCC1)c1cc(-c2ccccc2)on1 [CBK267479] | 89.5
O=C(NC1(C(F)(F)F)NC(=O)N(CCc2ccccc2)C1=O)c1ccco1 (stereo not drawn) [CBK267482] | 89.2
O=C(CSc1nnc(-c2cccs2)n1-c1ccccc1)Nc1ccnc2ccccc12 [CBK267487] | 94.4
Cc1ccc([N+](=O)[O-])cc1NC(=O)CSC1=NCCS1 [CBK267489] | 88.6
CCn1cc(C(=O)O)c(=O)c2cc(F)c(N3CCN(C(=S)NC(=O)c4c(-c5ccccc5)noc4C)CC3)cc21 [CBK267490] | 86.8
CCn1cc(C(=O)O)c(=O)c2cnc(N3CCN(C(=S)NC(=O)c4c(-c5ccccc5)noc4C)CC3)nc21 [CBK267491] | 85
Cc1onc(-c2ccccc2)c1C(=O)NC(=S)Nc1sc2c(c1C#N)CCC2 [CBK267492] | 89.1
Cc1onc(-c2ccccc2)c1C(=O)NNC(=S)NC(=O)c1ccc(Cl)cc1 [CBK267493] | 91.1
CC(C)(C)c1ccc(COn2c(=O)c(-c3ccccc3Cl)[n+]([O-])c3ccccc32)cc1 [CBK267494] | 101
COc1ccc(CCNc2nc3c(c(=O)n(C)c(=O)n3C)n2Cc2ccccc2Br)cc1OC [CBK267495] | 96.7
COCc1ccccc1Cn1cnc2ccccc21 [CBK267496] | 100
O=C(CC1C(=O)N(c2cccc(Cl)c2)C(=O)N1CCc1cccs1)Nc1ccccc1 (stereo not drawn) [CBK267499] | 79.7
O=C1CC(SCCc2nc3ccccc3[nH]2)C(=O)N1c1ccc(F)cc1 (stereo not drawn) [CBK267500] | 88.8
CS(=O)(=O)N(CC(=O)Nc1ccc2ccccc2c1)c1ccc(Cl)cc1Cl [CBK267501] | 87.6
O=[N+]([O-])c1ccc(S(=O)(=O)NCCSCc2ccco2)cc1 [CBK267503] | 94.1
Cc1ccc(SCCNS(=O)(=O)c2ccc3ccccc3c2)cc1 [CBK267504] | 88

SMILES | viability at 28.5 h, 10 µM [%]
O=C(CN1C(=O)c2ccc(Br)cc2C1=O)OCc1ccc(S(=O)(=O)N2CCOCC2)cc1 [CBK267505] | 84.6
CN(c1cccc(NS(=O)(=O)c2ccc3ccccc3c2)c1)S(C)(=O)=O [CBK267507] | 85.7
COc1ccc(C)cc1S(=O)(=O)N(C)CC(=O)Nc1cccc(SC)c1 [CBK267510] | 101
CCN1CCN(c2cc(N3CCN(C(=O)COc4ccccc4F)C(C)C3)c([N+](=O)[O-])cc2F)CC1 (stereo not drawn) [CBK267513] | 100
CC(NC(=O)CSc1ncc(-c2ccccc2)nn1)c1ccccc1 (stereo not drawn) [CBK267514] | 85.7
Cn1c2ccccc2c2nnc(SCc3ccc4nonc4c3)nc21 [CBK267515] | 89.9
c1ccc(Cn2c3ccccc3c3nnc(SCc4ccc5nonc5c4)nc32)cc1 [CBK267517] | 91.5
O=C(O)CCc1nn2c3ccccc3n(CCN3CCCCC3)c2nc1=O [CBK267519] | 97.5
Cc1ccc(C(=O)NC(=O)CSc2nc(N)n[nH]2)cc1 [CBK267523] | 90.9
O=C(CC(C(=O)O)n1cnc([N+](=O)[O-])n1)c1ccc(Br)cc1 (stereo not drawn) [CBK267524] | 89
N#CCCSc1nnc(-c2cccnc2)n1Cc1ccccc1 [CBK267526] | 100
O=C(CSc1nnc(-c2cccnc2)n1Cc1ccccc1)Nc1ccc(F)cc1 [CBK267528] | 96.8
CCn1c(Cc2c(C)[nH]c3ccccc23)nnc1SCC(=O)NC12CC3CC(CC(C3)C1)C2 [CBK267529] | 89.3
COCCSc1ccccc1C(=O)Nc1ccc(S(N)(=O)=O)cc1 [CBK267530] | 83.2
Cc1ccc(N2CC(C(=O)Nc3ccc(S(=O)(=O)NCC4CCCO4)cc3)CC2=O)cc1 (stereo not drawn) [CBK267532] | 91.7
Cc1c(C(=O)Nc2ccc(S(=O)(=O)NCC3CCCO3)cc2)cccc1[N+](=O)[O-] (stereo not drawn) [CBK267533] | 94.5
COCCSc1nnc(NS(=O)(=O)Cc2ccccc2)s1 [CBK267535] | 97.6
COc1ccc(C)cc1NC(=O)CSc1nnc(-c2ccccc2Cl)n1-c1ccccc1 [CBK267538] | 82.9
O=C(CSc1nnc(-c2cccnc2)n1-c1ccccc1)Nc1cc(C(F)(F)F)ccc1Cl [CBK267540] | 90.8
O=C(CCc1ccccc1)NNC(=O)C1C2C=CC(C2)C1C(=O)O (stereo not drawn) [CBK267541] | 94.2
O=C(CSC1c2ccccc2Sc2ccccc21)Nc1ccc(C(=O)O)cc1 [CBK267542] | 111

SMILES | viability at 28.5 h, 10 µM [%]
O=C(O)CCC(=O)N1N=C(c2c(-c3ccccc3)c3cc(Br)ccc3[nH]c2=O)CC1c1ccc([N+](=O)[O-])cc1 (stereo not drawn) [CBK267543] | 104
Cc1ccc2nc(O)c(C3=NN(C(=O)CCC(=O)O)C(c4ccco4)C3)c(-c3ccccc3)c2c1 (stereo not drawn) [CBK267544] | 91
CS(=O)(=O)Nc1ccc(C2=NN(S(C)(=O)=O)C(c3ccc4nccnc4c3)C2)cc1 (stereo not drawn) [CBK267546] | 83.1
COc1cccc(-c2nnc(SCc3nc4ccccc4[nH]3)n2N)c1 [CBK267549] | 91
Nn1c(SCc2ccc(Br)cc2)nnc1-c1ccccn1 [CBK267552] | 89.5
Nn1c(SCc2ccc(C(=O)O)cc2)nnc1-c1ccccn1 [CBK267553] | 90.8
Cc1sc2nc(SCc3nc4ccccc4[nH]3)n(Cc3ccco3)c(=O)c2c1C [CBK267554] | 112
Clc1ccc(-n2c(SCc3nc4ccccc4[nH]3)nnc2-c2ccncc2)cc1 [CBK267557] | 100
COc1ccc(-n2c(SCc3nc4ccccc4[nH]3)nc3sc4c(c3c2=O)CCCC4)cc1 [CBK267558] | 100
O=C(O)c1ccc(CSc2nnc(-c3ccncc3)n2-c2ccc(Br)cc2)cc1 [CBK267559] | 84.9
COc1ccc(NC(=O)CC2Nc3cccc4cccc(c34)NC2=O)cc1 (stereo not drawn) [CBK267561] | 93.1
Cn1c(=O)n(C)c2cc(S(=O)(=O)NCCC(=O)O)ccc21 [CBK267565] | 105
O=C(CSc1nnc(SCc2cccc3ccccc23)s1)Nc1ccc(F)c(Cl)c1 [CBK267574] | 92.1
O=C(CSc1nnc(SCc2cccc3ccccc23)s1)c1ccc2c(c1)OCO2 [CBK267576] | 100
CCc1cccc(C)c1NC(=O)CSc1nnc(-c2cccnc2)n1C [CBK267582] | 88.4
Cn1c(SCC(=O)Nc2c(F)cc(F)cc2Br)nnc1-c1cccnc1 [CBK267583] | 90.8
Cn1c(SCC(=O)Nc2c(F)cc(F)cc2Br)nnc1-c1cnccn1 [CBK267584] | 97.6
O=[N+]([O-])c1ccc(CSc2nnc(-c3cnccn3)n2Cc2ccco2)cc1 [CBK267585] | 100
O=[N+]([O-])c1ccc(CSc2nnc(-c3cccs3)n2Cc2ccco2)cc1 [CBK267588] | 86.6
O=C(CSc1nnc(-c2ccccc2F)n1-c1ccccc1)Nc1ccc2cn[nH]c2c1 [CBK267591] | 81.9
COc1ccc([N+](=O)[O-])cc1NC(=O)Nc1ccc(Cl)c(Cl)c1 [CBK267593] | 99.5
